The source of these data is US12642857B2, “Degradation of AKT by conjugation of ATP-competitive AKT inhibitor GDC-0068 with E3 ligase ligands and methods of use” (DANA-FARBER CANCER INSTITUTE, INC., priority 2019, dated 2026).

Entries after “also recorded” stand apart in the source; their conditions may differ.

For one test, the target named is T1, AKT1 (Homo sapiens, UniProt P31749).
T1 construct: purchased Life Technologies (Invitrogen)
The test is described as follows: Z'-LYTE assay (AKT binding assay), AKT1. As to conditions: 10-point dose response, Km ATP, read-out: Biochemical Binding AKT1. The method, then: (§1) Z′-LYTE assays (catalog number PV3193, Invitrogen™) were conducted for AKT1, AKT2, AKT3, PKG1, S6K1, PKN1, βMSK2, and Haspin at Life Technologies™ in a 10-point dose response using Km ATP concentrations. LanthaScreen™ assays were conducted for RET (V804M) in a 10-point dose response at Life Technologies™.

In test [1] the test system is AKT1, AKT2 and AKT3. Nature of the test: Immunoblot of AKT isoform degradation in MDA-MB-468 cells. In kind it is cell-based, human. As to conditions: 24-hour treatment. Here is the method: (§2) MDA-MB-468 (human breast cancer cell line) cells were maintained in RPMI 1640 (Wisent Bioproducts) supplemented with 10% FBS (Thermo Fisher Scientific) and MCF10A (human breast epithelial cell line) cells were maintained in Dulbecco's modified Eagle's medium (DMEM)/Ham's F12 (Wisent Bioproducts) supplemented with 5% equine serum (Fisher), insulin (10 μg/ml) (Life Technologies), hydrocortisone (500 ng/ml) (Sigma-Aldrich®), epidermal growth factor (20 ng/ml) (R&D Systems), and cholera toxin (100 ng/ml) (List Biological Lab). MDA-MB-468 and MCF10A cells were seeded at 250,000 cells/mL and 200,000 cells/mL, respectively. The following day cells were treated with inventive bifunctional compounds. After 24 hours, cells were washed with phosphate-buffered saline at 4° C. and lysed in radioimmunoprecipitation assay (RIPA) buffer (150 mM Tris-HCl, 150 mM NaCl, 0.5% (w/v) sodium deoxycholate, 1% (v/v) NP-40, pH 7.5) containing 0.1% (w/v) sodium dodecyl sulfate, 1 mM sodium pyrophosphate, 20 mM sodium fluoride, 50 nM calyculin, and 0.5% (v/v) protease inhibitor cocktail (Sigma-Aldrich®)). Cell extracts were precleared by centrifugation at 14,000 rpm for 10 minutes at 4° C. The Bio-Rad DC protein assay was used to assess protein concentration, and sample concentration was normalized using SDS sample buffer. […] Images were stored and analyzed using ImageStudio™ (LI-COR®) software. […]

In test [2] the test system is AKT1, AKT2 and AKT3. Nature of the test: Immunoblot of AKT isoform degradation in MCF10A cells. The settings on record: 24-hour treatment. Type of test: cell-based, human. Here is the method:
as §2
For orientation: Immunoblotting shows a protein as a band on a membrane.

Another test addresses T2, AKT3 (Homo sapiens, UniProt Q9Y243).
T2 construct: purchased Life Technologies (Invitrogen)
The test is described as follows: Z'-LYTE assay (AKT binding assay), AKT3. As to conditions: 10-point dose response, Km ATP, read-out: Biochemical Binding AKT3. Here is the method: as §1

In the next test the target is T3, AKT2 (Homo sapiens, UniProt P31751).
T3 construct: purchased Life Technologies (Invitrogen)
T3 sequence (P31751 whole entry): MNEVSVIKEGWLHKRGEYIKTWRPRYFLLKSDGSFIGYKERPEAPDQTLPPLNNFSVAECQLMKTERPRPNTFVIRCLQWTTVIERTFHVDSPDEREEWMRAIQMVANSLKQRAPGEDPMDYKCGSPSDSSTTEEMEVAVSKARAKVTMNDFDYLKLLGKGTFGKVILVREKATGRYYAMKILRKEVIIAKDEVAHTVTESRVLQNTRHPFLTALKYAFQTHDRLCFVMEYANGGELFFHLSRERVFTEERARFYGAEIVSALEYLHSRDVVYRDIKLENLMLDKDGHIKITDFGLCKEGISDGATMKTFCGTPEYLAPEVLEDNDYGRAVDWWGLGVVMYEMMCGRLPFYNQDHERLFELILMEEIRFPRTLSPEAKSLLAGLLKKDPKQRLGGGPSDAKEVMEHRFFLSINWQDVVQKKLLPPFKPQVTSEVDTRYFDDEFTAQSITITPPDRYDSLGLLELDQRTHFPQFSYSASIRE
The test is described as follows: Z'-LYTE assay (AKT binding assay), AKT2. As to conditions: 10-point dose response, Km ATP, read-out: Biochemical Binding AKT2. The method, then:
as §1

T2 sequence (Q9Y243 whole entry): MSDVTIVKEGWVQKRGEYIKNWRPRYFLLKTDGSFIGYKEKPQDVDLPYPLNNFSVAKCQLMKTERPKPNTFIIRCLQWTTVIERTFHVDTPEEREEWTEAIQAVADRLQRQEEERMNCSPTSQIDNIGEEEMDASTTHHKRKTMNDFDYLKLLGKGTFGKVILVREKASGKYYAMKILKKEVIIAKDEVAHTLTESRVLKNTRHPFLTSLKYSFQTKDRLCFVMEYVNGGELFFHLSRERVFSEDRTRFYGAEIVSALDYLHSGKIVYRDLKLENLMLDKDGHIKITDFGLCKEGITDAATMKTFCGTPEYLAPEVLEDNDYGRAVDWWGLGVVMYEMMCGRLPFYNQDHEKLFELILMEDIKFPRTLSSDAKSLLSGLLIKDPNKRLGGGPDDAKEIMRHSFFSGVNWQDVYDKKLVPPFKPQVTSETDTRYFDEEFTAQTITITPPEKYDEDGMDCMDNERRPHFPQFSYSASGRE
T1 sequence (P31749 whole entry): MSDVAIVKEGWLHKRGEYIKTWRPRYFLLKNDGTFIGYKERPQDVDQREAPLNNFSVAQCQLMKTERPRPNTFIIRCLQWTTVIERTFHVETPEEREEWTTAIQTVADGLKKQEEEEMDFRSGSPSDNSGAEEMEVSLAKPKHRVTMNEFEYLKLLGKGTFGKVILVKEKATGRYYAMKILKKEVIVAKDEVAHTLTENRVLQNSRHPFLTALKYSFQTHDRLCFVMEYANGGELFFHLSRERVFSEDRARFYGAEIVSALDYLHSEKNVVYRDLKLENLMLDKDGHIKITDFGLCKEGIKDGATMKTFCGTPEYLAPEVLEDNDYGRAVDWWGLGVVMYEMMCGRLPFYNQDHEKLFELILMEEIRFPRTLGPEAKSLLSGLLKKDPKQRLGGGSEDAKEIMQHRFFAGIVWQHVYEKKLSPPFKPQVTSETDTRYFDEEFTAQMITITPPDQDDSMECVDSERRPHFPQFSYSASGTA

Regarding `C[C@@H]1C[C@@H](O)c2ncnc(N3CCN(C(=O)[C@H](CNCCCCCCCCNC(=O)COc4cccc5c4C(=O)N(C4CCC(=O)NC4=O)C5=O)c4ccc(Cl)cc4)CC3)c21` (stereo partly drawn) [Compound 3, N-(8-(((S)-2-(4-chlorophenyl)-3-(4-((5R,7R)-7-hydroxy-5-methyl-6,7-dihydro-5H-cyclopenta[d]pyrimidin-4-yl)piperazin-1-yl)-3-oxopropyl)amino)octyl)-2-((2-(2,6-dioxopiperidin-3-yl)-1,3-dioxoisoindolin-4-yl)oxy)acetamide], the IC50 came to 1.03 nM at AKT1, 1.23 nM on AKT3 and 4.04 nM at AKT2. Moreover, the “Degradation of AKT isoforms” value is “degraded in MDA-MB-468 cells in a dose-dependent manner; also recorded: degraded in MDA-MB-468 cells (FIG. 3)” in the test on AKT1, AKT2 and AKT3 [1]; “degraded in MCF10A cells in a dose-dependent manner” in the test with AKT1, AKT2 and AKT3 [2].
